Patent US4803198A, “1-Phenyl-2-aminocarbonylindole compounds, preparation thereof and pharmaceutical compositions containing them” (Kali-Chemie Pharma GmbH, priority 1981, dated 1989)
Like-named read-outs stand apart in the source and are kept apart here.

Tests used:
[1] = test system: ventricular fibrillation caused by inhalation of chloroform; assay: Inhibition of ventricular fibrillation caused by inhalation of chloroform (method of Lawson); format: in vivo; conditions: mice, 10 min before chloroform
Protocol: For example, in mice, the compounds have an inhibiting effect on ventricular fibrillation caused by inhalation of chloroform. The effect of the compounds on ventricular fibrillation in mice caused by inhalation of chloroform leading to rapid cessation of breathing is determined by the method of Lawson (J. Pharmacol. Exp. Ther. 160, 22-23).
In this experimental procedure, the minimum toxic dose can also be determined at the same time. The test substance, dissolved in 0.9% strength sodium chloride solution, is administered intraperitoneally to female mice of 17-24 g body weight. The animals are kept individually in glass beakers, where they are observed for possible toxic symptoms. Ten minutes after administration of the test substance, the animals are transferred to covered 300 ml glass beakers containing a cottonwool swab soaked with about 20 ml of chloroform. As soon as breathing begins to stop, the heart is exposed and the ventricular rhythm and rate are observed visually. The percentage of animals protected from ventricular fibrillation by the dose administered is given.
in the test described above, the compounds of formula I display antiarrhythmic actions in a dose range from 0.1 to 100 mg/kg.
The Example numbers given for the compounds of formula I relate to the preparation Exaples below.

mice = conditions: mouse, in vivo
[2] = test system: isolated left auricle of female guinea pigs; assay: Functional refractory period prolonging and contraction force reducing action, double-stimulation method of Govier; conditions: isolated atrium from guinea pigs; for EC (125%) / IC25: Cavia porcellus; for EC (125%): 0.3 h, 18 minutes after administration, read-out: FRP: concentration at which the functional refractory period is increased to 125%; for IC25: read-out: Force: concentration at which the contraction force is reduced to 75% of the starting value; for Force/FRP quotient of concentrations: indication of therapeutic range
From the text: The favourable relationship between the functional refractory period prolonging action (FRP) and the contraction force reducing action (force) of the compounds can also be shown on the isolated left auricle of female guinea pigs of 300-400 g body weight by the double-stimulation method of Govier [J. Pharmakol.

[3] = test system: disorders in cardiac rhythm induced by aconitine infusion; assay: Inhibition of disorders in cardiac rhythm induced by aconitine infusion (method of Raschak); format: in vivo, rats; conditions: Rattus norvegicus, iv
Protocol: The compounds also show an inhibiting action on disorders in cardiac rhythm induced by aconitine infusion [extrasystoles (ES), ventricular tachycardia (VT) and ventricular fibrillation (VF)] in rats in the experimental method of Raschak (Arzneimittelforsch. 25 (1975) 639-641). Thus, for example, the minimum effective doses of 2-[3-(N,N-diethylamino)-2-hydroxypropylaminocarbonyl]-3-methoxy-1-phenylindole on intravenous administration 5 minutes before the start of aconitine infusion are as follows: […]

Acute toxicity = conditions: in vivo; for LD50: mouse
From the text: This gives a therapeutic range (=quotient LD50 .sbsb.mouse /EDmin) of 8-17.

Compound	% of protected animals ([1]; dose 100 mg/kg ip) [%]	Minimum toxic dose (mice; ip) [mg/kg]	Minimum toxic dose (mice; po) [mg/kg]	also measured
CN(C)CCNC(=O)c1c(O)c2ccccc2n1-c1ccc(Cl)cc1 [Example 2, 2-[2-(N,N-Dimethylamino)-ethylaminocarbonyl]-3-hydroxy-1-(4'-chlorophenyl)-indole]	100	≥ 100	≥ 300	
COc1c(C(=O)NCCN(C)C)n(-c2ccc(Cl)cc2)c2ccccc12 [Example 15]	100	≥ 100	≥ 300	
CCN(CC)CCCCNC(=O)c1c(OC)c2ccccc2n1-c1ccccc1 [Example 22]		300	50	% of protected animals ([1]; dose 10 mg/kg ip): 66.7%
Cc1cccc(-n2c(C(=O)NCCN(C)C)c(O)c3ccccc32)c1C [Example 25]	66.7	≥ 100	≥ 300	
CCN(CC)CC(O)CNC(=O)c1c(OC)c2ccccc2n1-c1ccccc1 (stereo not shown) [Example 1, 2-[3-(N,N-Diethylamino)-2-hydroxypropylaminocarbonyl]-3-methoxy-1-phenylindole]		300	100	% of protected animals ([1]; dose 25 mg/kg ip): 100%; EC (125%) [2]: 3.6 µM; IC25 [2]: 6.3 µM; Force/FRP quotient of concentrations [2]: 1.8; minimal effective dose ([3]; read-out: Minimum effective inhibiting dose, extrasystoles): 2.15 µmol/kg; minimal effective dose ([3]; read-out: Minimum effective inhibiting dose, heart rate): > 12 µmol/kg; minimal effective dose ([3]; read-out: Minimum effective inhibiting dose, ventricular fibrillation): 4.64 µmol/kg; minimal effective dose ([3]; read-out: Minimum effective inhibiting dose, ventricular tachycardia): 2.15 µmol/kg; LD50 (Acute toxicity; ip, administered intraperitoneally): 164 µmol/kg; LD50 (Acute toxicity; iv, administered intravenously): 37.3 µmol/kg; selectivity ratio (Acute toxicity; LD50 mouse over minimum effective dose in aconitine test, read-out: therapeutic range (=quotient LD50 mouse/EDmin)): 8 to 17
COc1c(C(=O)NCCN(C)C)n(-c2ccccc2)c2ccc(Br)cc12 [Example 30]		≥ 300	200	% of protected animals ([1]; dose 50 mg/kg ip): 33.3%
CCN(CC)CCCNC(=O)c1c(OC)c2ccccc2n1-c1ccccc1 [Example 20]		300	50	% of protected animals ([1]; dose 10 mg/kg ip): 100%; EC (125%) [2]: 0.66 µM; IC25 [2]: 3.57 µM; Force/FRP quotient of concentrations [2]: 5.4
